Results as given in US20150125550A1, “APPLICATION OF 2,9-DI-SEC-BUTYL-1,10-PHENANTHROLINE AS A GLIOBLASTOMA TUMOR CHEMOTHERAPY” (priority 2013, published 2015).

Key:
[1] = Peripheral pathology and liver toxicity in non-tumor bearing mice; assay type: in vivo, C57BL/6 mice
Method: (§1) Histology: For brain tumor histology, mice were perfused intracardially with 4% formaldehyde in Na+/K+ balanced PBS and brains were extracted, incubated in 4% formaldehyde overnight followed by 30% sucrose in Na+/K+ balanced PBS. Brains were flash frozen in isopentane, embedded in optimal cutting temperature compound (OCT), cryosectioned in coronal sections (12 μm) and stained with hematoxylin and eosin. Another cohort of equivalently drug-treated mice was used for liver, lung and gut histology. The mice were then sacrificed on day 19, and the liver, lung and gut tissues were collected and placed in 4% formaldehyde in Na+/K+ balanced PBS overnight. The organs were then placed for 48 hrs in 70% EtOH before paraffin embedding and sectioning at 6 μm. Sections were then stained with hematoxylin and eosin and pathology was assessed blindly and independently by a trained pathologist. A TUNEL staining kit was obtained from TREVIGEN (NeuroTACS II In Situ Apoptosis Detection Kit, Cat#4823-30-K) and used for both ex-vivo slices and in-vitro staining according to manufacturers instructions.
Intra-cardial blood was collected from the non-tumor bearing mice and subjected to centrifugation for 10 minutes to collect the serum. Aspartate transaminase and Alanine transaminase levels were measured in the serum using Bio Scientific (3913 Todd Lane Suite 312 Austin, Tex.) colorimetric kits (Cat#5605-01 and 3460-08 respectively).
To test if the low level of growth inhibition noted in HFF cells translated into lower systemic toxicity in-vivo, non-tumor bearing control and treatment groups of mice were treated with saline and SBP (10 mg/kg), respectively, on days one, seven, and 13. On day 19 following the first SPB or saline injection, the liver, lungs and proximal small intestine were collected for histopathological analysis.

[2] = system: A549 lung cancer cells; experiment: SRB colorimetric assay, A549 lung cancer cells, 72 hours; assay type: cell-based, human; conditions: Homo sapiens; A549, 72 hours, average ± SD of three curves
Method: A549 cells were cultured in RPMI media supplemented with 10% Fetal Bovine Serum and 1% nonessential amino acids. Sub-culturing was carried out every 3-4 days and was completed by removing the supernatant media and treating the adherent cells with 1.0 mL of a 0.25% (w/v) Trypsin/0.5 mM EDTA solution. The cells were then treated for approximately 3 minutes in a 37° C. incubator under a 5% CO2 atmosphere. Trypsinization was stopped by the addition of 7.0 mL of cell culture media, the suspended cells were collected by centrifugation, and the resulting cell pellet was re-suspended in fresh cell culture media. The cells were then diluted 1:4 by volume and incubated in a 37° C. incubator with 5% CO2. Cells were grown to 80-90% confluency prior to being used in the SRB colorimetric assays.
To test the effects of compounds 1-18 on the growth of A549 lung cancer cells, SRB cytotoxicity assays were done as described by Skehan et al. Cells were maintained in RPMI media as described above, collected, and diluted so that cells could be seeded in 96-well plates at a density of 4,000 cells/well. The 96-well plate was incubated overnight at 37° C. under a 5% CO2 atmosphere. Subsequently, sterifiltered DMSO stock solutions of the drugs were added to the wells in various concentrations (0-25 μM) and the 96-well plate was incubated at 37° C. under a 5% CO2 for an additional 72 hours. The supernatant cell culture medium was then removed and the cells were fixed for 1 hour with 10% cold trichloroacetic acid (100 μL per well). The trichloroacetic acid was discarded and the plates were washed 5 times with de-ionized water and air dried. After being stained with 0.4% SRB ([…]) and incubated at room temperature for 10 minutes, the cells were washed 5 times with 1% acetic acid and air dried. The bound SRB was dissolved in 10 mM unbuffered Tris, pH 10.5 ([…]) for 10 minutes at room temperature, and the absorbance at 492 nm was measured using a microplate reader. The percent cell growth was then calculated based upon the absorbance values relative to control samples not containing any drug. Each drug concentration was done in triplicate to yield a percent growth vs. drug concentration curve, and these growth curves were subsequently repeated two additional times. The growth curves from the three experiments were then plotted in GraphPad Prism and best-fit curves were used to generate the IC50 values for each curve.

[3] = system: GL-26 glioma cells; experiment: TUNEL apoptosis staining of cultured cells; assay type: cell-based, murine (C57BL/6)
Method: as §1

[4] = system: primary murine astrocytes; experiment: SRB toxicity assay on primary murine astrocytes; assay type: cell-based, murine (C57BL/6); conditions: Mus musculus, Astrocyte
Method: The murine (C57BL/6) glioma cell line, GL-26, which is highly tumorigenic in the C57BL/6 mice. GL-26 cells were cultured in DMEM/F12 supplemented with 10% FCS, 1% penicillin/streptomycin, 1% L-glutamine and 1% non-essential amino acids. Human foreskin fibroblasts (HFFs) were cultured in DMEM/F12 supplemented with 10% FCS and 1% penicillin/streptomycin. Primary murine astrocytes were purified from C57BL/6 neonate brains and cultured in DMEM/F12 supplemented with 10% FCS, 1% non-essential amino acids, 1% Lglutamine, 50 IU/ml penicillin, […] and 10 mM Hepes buffer.
(§2) The sulforhodamine B (SRB) cytotoxicity assays were adapted from Skehan et al. (22). Briefly, either HFF, primary astrocytes or GL-26 cells were plated in 96-well plates at a density of 4,000 cells/well in a volume of 100 µL overnight at 37° C. and 5% CO2. DMSO stock solutions of SBP, MSBP or TMZ were used at a concentration range of 0.1-25 μM for 48 hr before the supernatant was discarded and the cells were fixed for 1 hr with 10% cold trichloroacetic acid (100 μL, per well). Cells used in recovery assay received fresh media for 48 hrs following the 48 hr drug incubation. The plate was then washed 5 times with de-ionized water, air dried, and stained with 0.4% SRB for 10 min (50 μL, per well). After washing 5 times in 1% acetic acid and air-drying, bound SRB was dissolved in 10 mM unbuffered Tris base (pH 10.5; 100 μL, per well). Bound SRB was then read by absorbance at 492 nm on a SpectraMax plate reader (Molecular Devices). The percent survival was then calculated based upon the absorbance values relative to control wells (0 μM SBP in 0.1% DMSO).

[5] = system: GL-26 glioma cells; experiment: SRB recovery assay (48 hr drug, then 48 hr fresh media); assay type: cell-based, murine (C57BL/6); conditions: 48 hr drug + 48 hr recovery
Method: as §2
To test if constant SBP administration is necessary to maintain growth inhibition, an SRB recovery assay was performed where GL-26 cells were plated and treated as above, but SBP was removed after a 48-hour incubation and replaced by fresh media. […]

[6] = 10 mg/kg days 1, 7, 13, day 19, non-tumor bearing mice

IC50 [2]: 0.42 ± 0.17 µM
Compound: CCC(C)c1ccc2ccc3ccc(C(C)CC)nc3c2n1 (stereo not shown) [Compound 1, 2,9-di-sec-butyl-1,10-phenanthroline]
histopathology, duodenum ([1]; 10 mg/kg days 1, 7, 13, day 19): no general pathology
histopathology, liver ([1]; 10 mg/kg days 1, 7, 13, day 19): some endothelial damage, but no overt hepatocyte damage
histopathology, lung ([1]; 10 mg/kg days 1, 7, 13, day 19): no overt pathology
serum alanine transaminase (ALT) [1, 6]: 49.71±14.61 U/L
serum aspartate transaminase (AST) [1, 6]: 212.3±14.62 U/L
side effects in healthy mice ([1]; mouse, in vivo): did not appear to experience any significant side effects
apoptosis (TUNEL) in cultured GL-26 cells [3]: kills GL-26 cells by inducing apoptosis
inhibition at 6 µM ([4]; 6 μM, 48 hours, read-out: astrocyte growth inhibition): 18%
inhibition at 25 µM ([4]; 25 μM, 48 hours, read-out: astrocyte growth inhibition): 37.3 ± 0.9%
IC50 ([4]; not reached at 25 μM, read-out: IC50 on non-cancerous glial cells (astrocytes)): > 25 µM
GL-26 cell growth inhibition 48 hours after completion of treatment ([5]; 0.8 mM SBP (so in the source)): 31.5±6.6%
GL-26 cell growth inhibition after extra incubation period ([5]; 1.6-25 mM SBP (so in the source)): up to 85.4±0.2%
